Assay results: patent publication US12502391B2, “Multi-kinase inhibitors of VEGF and TGF beta and uses thereof” (AIVIVA BIOPHARMA, INC., priority 2018, dated 2025)
Several values for one entry are separate records, joined by “and”; a condition that tells them apart may be missing. Equal entries are not always repeated. Structures can show the parent of a compound that is named as a salt.

Legend:
[1] = test system: full-thickness excision wounds; assay: Histology of full-thickness excision wounds in Yucatan minipigs (fibroplasia, neovascularization); assay type: in vivo; conditions: Yucatan minipig wound sites after two doses, Day 59, scale 1 (minimal) to 5 (severe); for Neovascularization; dermis, average score: untreated 2.33; for Fibroplasia; dermis, average score: untreated 3.33
Text: (§1) In this experiment, multiple full-thickness excision wounds were made to the dorsum of Yucatan minipigs, and the wound sites were allowed to be re-epithelialized adequately. At four weeks post-wound, the wound sites had normal to pink vascularity and had pliability. Epidermal hyperplasia was observed, as expected for regenerative responses in the full-thickness wounds.
(§2) On Day 28 post-wound, a dose (e.g., 1%) of axitinib, nintedanib, riociguat, sorafenib, sunitinib, and/or lenvatinib was administered into the dermal tissue at or around the wound sites, once every two weeks on two occasions. One wound site was left untreated as the control for each pig. Please note that the particular parameters in this example are only for illustration. One skilled in the art would appreciate that the dosages, administration methods, treatment regimen, and the administration sites may be varied to achieve similar results.
On Day 59 post wound, the minipigs were sacrificed and dermal tissues were collected for qualitative and quantitative evaluation using hematoxylin and eosin, and Mason's Trichrome staining. Dermal fibroplasia was characterized by increased numbers of fibroblasts in the dermis suspended in variable amounts of collagen in wounds.

TGF-β1 mRNA = TGF-β1 mRNA expression (qRT-PCR) in Yucatan pig skin wound sites; assay type: in vivo, Yucatan minipigs; conditions: Yucatan pig skin wound sites after treatments; for TGF-β1 mRNA Expression Fold Relative to Untreated Unwounded Control: individual animals 7369, 7370, 7371, duplicate sets 1 and 2, beta actin reference gene
Text: as §1, §2
In addition, total mRNA was isolated from skin biopsies of the treated wound sites and the untreated unwounded sites of the pigs. The mRNA samples were used to prepare cDNA and analyzed via qRT-PCR. The TGF-β1 expression levels were assessed using beta actin as a reference gene.

[2] = test system: rabbit ear hypertrophic scar; assay: Histopathology of rabbit ear wounds (neovascularization, fibrosis, re-epithelization); assay type: in vivo, New Zealand white rabbits; set-up: key to Total Score, Treated Mean: aggregate of neovascularization, fibrosis, re-epithelization grades; key to Neovascularization score, Treated Mean / Fibrosis/Collagen score, Treated Mean / Re-epithelization score, Treated Mean: five-step severity grade: minimal, mild, moderate, marked, severe; conditions: rabbit ear wound, intradermal dosing of 1 wt. %
Protocol: In New Zealand white rabbits, maintained under a surgical plane of anesthesia, trauma stimulation of the skin on the ventral surface of both ears is initiated on Day 1. Trauma sites are evaluated on Days 8, 15, 22, 29, 36, and 43. On days 15 and 29, each site is dosed with test compounds (e.g., 1% w/w, 100 μl) by intradermal or intralesional injections.
At necropsy, each treatment site was harvested and preserved for hematoxylin and […] and Mason's trichrome stainings. Each lesion was examined histologically and graded for neovascularization, fibrosis and re-epithelization using a five-step/severity grading system (minimal, mild, moderate, marked, and severe). The average total score is an aggregation of these microscopic findings relating to an inflammatory response.

[3] = test system: suture-induced ocular fibrosis; assay: Rabbit corneal suture-induced ocular fibrosis model; assay type: in vivo, rabbits; conditions: topical three times daily, 10-day observation period
Text: In order to investigate the anti-fibrotic effect of test compounds following wounding in the eye, a suture-induced ocular fibrosis model was used. Suture was placed intrastromally under a microscope in the cornea of rabbits. In each eye, one 9.0 silk suture was placed, in a vertical position, temporal to the corneal center and a second suture was placed nasal to the corneal center. Each suture had two stromal incursions approximately 2 mm from the limbus. Test compounds having certain spectrum of multikinase inhibition activities and/or vehicle were topically instilled (35 uL/eye) in the eyes three times daily for 10 days the day following surgery. The treatment groups include vehicle, nintedanib (0.3%, w/v), pirfenidone (1%, w/v), riociguat (0.3%, w/v), sorafenib (0.3%, w/v) and lenvatinib (0.3%, w/v). Six left eyes were used per treatment group.
The animals were sacrificed on Day 11 and the eyes enucleated and dissected for histopathological evaluation.

[4] = test system: benign prostate hyperplasia; assay: Testosterone and phenylephrine induced benign prostate hyperplasia in rats; assay type: in vivo, Wistar rats; set-up: key to epithelial hyperplasia score, dorsolateral prostate, representative image / epithelial hyperplasia score, ventral prostate, representative image: severity grade 0 = not present to 5 = severe
Protocol: BPH is a true hyperplastic process. Histologic studies have documented an increase in cell number. A study was conducted, therefore, to determine the effects of test compounds and vehicle on testosterone (TE) and phenylephrine (PE) induced benign prostate hyperplasia in rats. Male Wistar rats were induced with testosterone (2 mg/kg) plus phenylephrine (5 mg/kg) administered daily by subcutaneous injection on days 5 through 32. Vehicle or test compounds (all at 1% w/w), nintedanib, sunitinib, lenvatinib, and 0.5% doxazosin mesylate, were administered by intra-prostate injection (0.4 ml) in dorsolateral and ventral lobes on days 1 and 18. Animals were euthanized on day 32. Body weights were determined and prostate glands were harvested. The experimental design is outlined in Table 6.
At necropsy, the ventral and dorsolateral lobes of the prostate were separated and then cut into halves. The left halves were fixed in 10% neutral buffered formalin, sectioned, and stained with Hematoxylin and Eosin (H&E). Histological changes in these sections were scored. Epithelial hyperplasia was recognized as an increase in epithelial cells within normal-appearing gland profiles, primarily reflected by stratification of epithelial cells and increased presence of epithelial tufting and papillary projections. A severity grade of 0 (not present) through 5 (severe) was assigned to each sample.

subconjunctival scarring = assay: Bleb survival after glaucoma filtration surgery in rabbit eyes; assay type: in vivo, rabbits
Protocol: In order to investigate the anti-scarring effect of topically applied test compounds following ocular surgeries, glaucoma filtration surgery was performed on rabbit eyes. Postoperative subconjunctival wound healing is a major cause of late bleb failure after glaucoma filtration surgery in humans. Select multikinase inhibitors were tested for effect on bleb survival over time. Inhibition of subconjunctival fibrosis following surgery will improve bleb survival. Vehicle was used as a negative control and pirfenidone was used a positive control.
A scleral tract was created in the left eyes superiorally by tunneling a beveled 22-gauge intravenous cannula through the sclera, beginning behind the limbus and continuing until the cannula is visible in the anterior chamber. The cannula was flushed with sodium heparin (1000 units) prior to placement. The cannula needle was withdrawn and the cannula advanced beyond the pupillary margin to prevent iris blockage of the tube. The cannula was trimmed approximately 2 mm and secured to the sclera using suture. Both the Tenon's and the conjunctiva were sutured with 9-0 Prolene. Six rabbits were used per group and the left eye of each rabbit underwent glaucoma filtration surgery. The treatment groups include vehicle control, pirfenidone (1%, w/v) as a positive control, sorafenib (0.3%, w/v), and lenvatinib (0.3%, w/v). Eyedrops (35 uL) were topically applied to the eyes following surgery three times day for 30 days. All animals were sacrificed on Day 30.
Bleb was monitored throughout the study. Bleb volumes were measured with the use of calibrated calipers. […] There were differences noted between groups at Day 7, and the majority of blebs were gone by Day 14 through Day 30 indicating bleb failure due to subconjunctival scarring. Results of the vehicle and pirfenidone groups were similar to those reported in the literature (Zhong H et al., Invest Ophthalmol Vis Sci, 52: 3136-3142, 2011).

[5] = five-step severity grading (minimal to severe)
[6] = TE and PE induced rats, intra-prostate injection 0.4 ml on days 1 and 18 (1% w/w; doxazosin mesylate 0.5%), severity grade 0 (not present) through 5 (severe), induced vehicle score=4

With `CNC(=O)c1ccccc1Sc1ccc2c(/C=C/c3ccccn3)n[nH]c2c1` [axitinib] the “Neovascularization; dermis, average score” value (shortened to “Neovascularization; dermis”) [1] was “(1.67)”, the “Fibroplasia; dermis, average score” value [1] was “(2.33)” and the “TGF-β1 mRNA Expression Fold Relative to Untreated Unwounded Control” value (TGF-β1 mRNA) was 0.89 fold and 0.68 fold (2×) and 0.64 fold and 0.37 fold and 0.78 fold. The “average total score of test wounds, fold lower than untreated wounds” value [2] was “about 1.3 fold”, the “Total Score, Treated Mean” value ([2]; aggregation of microscopic findings) was 4.6 and the “Fibrosis/Collagen score, Treated Mean” value [2, 5] was 3.3. The “Neovascularization score, Treated Mean” value [2, 5] was 1 and the “Re-epithelization score, Treated Mean” value [2, 5] was 0.3.
`COC(=O)N(C)c1c(N)nc(-c2nn(Cc3ccccc3F)c3ncccc23)nc1N` [riociguat] was tested, and the “Neovascularization; dermis” value [1] was “(2.67)”, the “Fibroplasia; dermis, average score” value [1] was “(2.67)” and the “reduction of TGF-β1 mRNA expression levels at treated wounds” value (TGF-β1 mRNA) was “most effective”. For the same molecule, the “TGF-β1 mRNA Expression Fold Relative to Untreated Unwounded Control” value (TGF-β1 mRNA) was 0.60 fold and 0.76 fold and 0.87 fold and 0.39 fold and 0.49 fold and 0.8 fold and the “gross ocular observations: conjunctival congestion and swelling” value [3] was “slightly more severe reaction”.
In the case of `COc1cc2nc(N3CCN(C(=O)C4COc5ccccc5O4)CC3)nc(N)c2cc1OC` (centres unmarked) [doxazosin, doxazosin mesylate], the “epithelial hyperplasia score, dorsolateral prostate, representative image” value [4, 6] is reported as 3, the “epithelial hyperplasia score, ventral prostate, representative image” value [4, 6] is reported as 3 and the “glandular hyperplasia compared to untreated TE/PE induced prostates” value ([4]; TE and PE induced rats, intra-prostate injection on days 1 and 18) is reported as “demonstrated reduction of glandular hyperplasia”.
In the case of `Cc1ccc(=O)n(-c2ccccc2)c1` [pirfenidone], the “bleb survival on Day 7” value (subconjunctival scarring; eyedrops 35 uL three times a day, pirfenidone 1% w/v, lenvatinib 0.3% w/v, compared to vehicle and sorafenib groups) is reported as “kept bleb survival on Day 7” and the “bleb remaining / bleb failure on Day 30” value (subconjunctival scarring; eyedrops three times a day for 30 days, 6 animals per group) is reported as “demonstrated bleb failure”.
With `CCN(CC)CCNC(=O)c1c(C)[nH]c(/C=C2\C(=O)Nc3ccc(F)cc32)c1C` [sunitinib] the “Neovascularization; dermis” value [1] was “(2.33)”, the “Fibroplasia; dermis, average score” value [1] was “(2.67)” and the “TGF-β1 mRNA Expression Fold Relative to Untreated Unwounded Control” value (TGF-β1 mRNA) was 0.50 fold and 0.53 fold and 0.48 fold and 0.45 fold and 0.64 fold and 1.86 fold. For the same molecule, the “epithelial hyperplasia score, ventral prostate, representative image” value ([4]; 1 % strength) was 3 and the “epithelial hyperplasia score, dorsolateral prostate, representative image” value [4, 6] was 3.
